The values below come from US11964953B2, “Substituted aminothiazoles as DGKzeta inhibitors for immune activation” (Bayer Aktiengesellschaft, priority 2020, dated 2024).

One may read the IC50 as the concentration that inhibits the measured activity by half.

Some results are limits rather than exact numbers.

This test deals with human DGKζ (Homo sapiens (Human), UniProt Q13574). Nature of the test: Human DGKζ kinase activity inhibition assay (ADP-Glo). Format: biochemical. The conditions noted are these: in vitro human DGKζ kinase activity inhibition assay; read-out: IC50. The method in brief: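 ADP-Glo luminescence, reflecting ADP produced, served as the readout of activity. Full-length human DGKζ, FLAG-tagged at the C-terminus and insect-cell expressed, was used; lipid substrate mix was sonicated with octyl-β-D-glucopyranoside in 50 mM MOPS pH 7.4.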
human DGKζ, sequence (Q13574 other isoform, or with tags, fused parts or gaps): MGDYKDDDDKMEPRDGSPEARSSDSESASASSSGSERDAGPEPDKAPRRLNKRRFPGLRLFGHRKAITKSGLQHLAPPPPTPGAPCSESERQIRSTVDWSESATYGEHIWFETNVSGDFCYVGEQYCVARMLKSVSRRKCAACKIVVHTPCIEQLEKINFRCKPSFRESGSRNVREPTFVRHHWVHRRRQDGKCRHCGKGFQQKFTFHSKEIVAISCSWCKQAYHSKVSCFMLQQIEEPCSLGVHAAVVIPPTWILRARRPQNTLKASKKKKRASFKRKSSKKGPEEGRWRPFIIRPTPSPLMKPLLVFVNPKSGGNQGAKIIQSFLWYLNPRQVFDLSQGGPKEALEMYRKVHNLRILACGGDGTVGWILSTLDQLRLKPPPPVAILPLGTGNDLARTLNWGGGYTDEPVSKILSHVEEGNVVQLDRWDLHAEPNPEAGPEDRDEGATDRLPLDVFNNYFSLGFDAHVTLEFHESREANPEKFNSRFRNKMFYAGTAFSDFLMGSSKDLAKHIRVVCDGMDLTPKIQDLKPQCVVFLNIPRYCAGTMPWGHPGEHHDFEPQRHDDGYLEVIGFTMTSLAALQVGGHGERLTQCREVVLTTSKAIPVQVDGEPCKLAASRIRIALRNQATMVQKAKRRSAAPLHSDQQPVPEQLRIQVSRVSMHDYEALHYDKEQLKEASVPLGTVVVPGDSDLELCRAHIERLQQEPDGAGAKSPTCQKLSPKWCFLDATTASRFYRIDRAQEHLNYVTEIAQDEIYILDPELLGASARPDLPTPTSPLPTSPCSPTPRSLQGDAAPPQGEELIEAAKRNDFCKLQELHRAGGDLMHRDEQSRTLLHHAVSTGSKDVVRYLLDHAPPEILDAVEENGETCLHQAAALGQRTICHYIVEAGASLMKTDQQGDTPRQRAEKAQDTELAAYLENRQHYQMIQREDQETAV
(ADP-Glo turns the ADP formed in a reaction into a luminescent signal.)
Take `CC(C(N)=O)N(c1ccc(F)cc1)c1nc(N)c(C(=O)c2ccc(N3CCCCC3)nc2)s1` (racemic) [Example 283, rac-2-(N-[4-amino-5-[6-(1-piperidyl)pyridine-3-carbonyl]thiazol-2-yl]-4-fluoro-anilino)propanamide]: the IC50 was determined as 0.036 µM.

With `COc1ccc(C(=O)c2sc(N(c3ccc(OC(F)F)nc3)C(C)C(N)=O)nc2N)cc1` (racemic) [Example 252, rac-2-[[4-amino-5-(4-methoxybenzoyl)thiazol-2-yl]-[6-(difluoromethoxy)-3-pyridyl]amino]propanamide], the IC50 is 0.106 µM.

`CC(C(N)=O)N(c1ccc(OC(F)(F)F)nc1)c1nc(N)c(C(=O)c2ccc(OC(F)F)cc2)s1` (racemic) [Example 250, rac-2-[[4-amino-5-[4-(difluoromethoxy)benzoyl]thiazol-2-yl]-[6-(trifluoromethoxy)-3-pyridyl]amino]propanamide]: the IC50 came out at 0.036 µM.

For the compound `CC(C(N)=O)N(c1ccc(Cl)cc1)c1nc(N)c(C(=O)c2ccc(Cl)cc2)s1` (racemic) [Example 41, rac-2-(N-[4-amino-5-(4-chlorobenzoyl)thiazol-2-yl]-4-chloro-anilino)propanamide], the IC50 came to 0.0135 µM.

As to `CC(C(N)=O)N(c1ccc(OC(F)(F)F)c(F)c1)c1nc(N)c(C(=O)c2ccc(OC(F)F)nc2)s1` (racemic) [Example 221, rac-2-[N-[4-amino-5-[6-(difluoromethoxy)pyridine-3-carbonyl]thiazol-2-yl]-3-fluoro-4-(trifluoromethoxy)anilino]propanamide], the concentration for half-maximal inhibition (IC50) is 0.031 µM.

In the case of `CC(C(N)=O)N(c1ccc2c(c1)OC(F)(F)O2)c1nc(N)c(C(=O)c2ccc(Cl)cc2)s1` (racemic) [Example 213, rac-2-[[4-amino-5-(4-chlorobenzoyl)thiazol-2-yl]-(2,2-difluoro-1 ,3-benzodioxol-5-yl)amino]propanamide], the IC50 was found to be 0.042 µM.

In the case of `CC(C(N)=O)N(c1ccc(Cl)cc1)c1nc(N)c(C(=O)c2ccncc2)s1` (single isomer, unassigned) [Example 57.1, 2-(N-[4-amino-5-(pyridine-4-carbonyl)thiazol-2-yl]-4-chloro-anilino)propanamide], the IC50 came out at 0.137 µM.

`CC(C(N)=O)N(c1ccc(F)cc1)c1nc(N)c(C(=O)c2ccc(C#N)cc2F)s1` (racemic) [Example 22, rac-2-(N-[4-amino-5-(4-cyano-2-fluoro-benzoyl)thiazol-2-yl]-4-fluoro-anilino)propanamide]: the IC50 was 0.13 µM.

In the case of `COc1ccc(NC(=O)COc2ccc(C(=O)c3sc(N(c4ccc(F)cc4)C(C)C(N)=O)nc3N)cc2)cc1` (racemic) [Example 117, rac-2-(N-[4-amino-5-[4-[2-(4-methoxyanilino)-2-oxo-ethoxy]benzoyl]thiazol-2-yl]-4-fluoro-anilino)propanamide], the IC50 was 0.0149 µM.

Regarding `Cc1nc(N(c2ccc(F)cc2)C(C)C(N)=O)sc1C(=O)c1ccccc1` (racemic) [Example 156, rac-2-(N-(5-benzoyl-4-methyl-thiazol-2-yl)-4-fluoro-anilino)propanamide], the half-inhibitory concentration (IC50) was 0.231 µM.

As for `CC(C(N)=O)N(c1nc(N)c(C(=O)c2ccc(OC(F)F)cc2)s1)c1ccc(Cl)cc1F` (racemic) [Example 46, rac-2-(N-[4-amino-5-[4-(difluoromethoxy)benzoyl]thiazol-2-yl]-4-chloro-2-fluoro-anilino)propanamide], the IC50 was 0.00707 µM.

As to `CC(C(N)=O)N(c1ccc(Cl)c(F)c1)c1nc(N)c(C(=O)c2ccc(C(=O)NCCOC(F)F)cc2)s1` (racemic) [Example 270, rac-4-[4-amino-2-(N-(2-amino-1-methyl-2-oxo-ethyl)-4-chloro-3-fluoro-anilino)thiazole-5-carbonyl]-N-2-(difluoromethoxy)ethyl]benzamide], the IC50 was determined as 0.013 µM.

Take `COc1ccc(C(=O)c2sc(N(c3ccc(F)cc3)C(C)C(N)=O)nc2N)c(F)c1` (racemic) [Example 23, rac-2-(N-[4-amino-5-(2-fluoro-4-methoxy-benzoyl)thiazol-2-yl]-4-fluoro-anilino)propanamide]: the IC50 worked out at 0.13 µM.

For `CC(=O)N1CCN(C(=O)COc2ccc(C(=O)c3sc(N(c4ccc(F)cc4)C(C)C(N)=O)nc3N)cc2)CC1` (racemic) [Example 114, rac-2-(N-[5-[4-[2-(4-acetylpiperazin-1-yl)-2-oxo-ethoxy]benzoyl]-4-amino-thiazol-2-yl]-4-fluoro-anilino)propanamide], the IC50 turned out to be 0.658 µM.

Take `CC(C(N)=O)N(c1ccc(N(C)C)cc1)c1nc(N)c(C(=O)c2ccccc2)s1` (racemic) [Example 2, rac-2-[N-(4-amino-5-benzoyl-thiazol-2-yl)-4-(dimethylamino)anilino]propanamide]: the IC50 came out at 0.935 µM.

In the case of `CC(Oc1ccc(C(=O)c2sc(N(c3ccccc3)C(C)C(N)=O)nc2N)cc1)C(N)=O` (single isomer, unassigned) [Example 45.4, 2-(N-[4-amino-5-[4-[2-amino-1-methyl-2-oxo-ethoxy]benzoyl]thiazol-2-yl]anilino)propanamide], the half-inhibitory concentration (IC50) was over 20 µM.

For `CC(C(N)=O)N(c1ccc(Cl)cc1)c1nc(N)c(C(=O)c2ccc(F)cc2)s1` (racemic) [Example 37, rac-2-(N-[4-amino-5-(4-fluorobenzoyl)thiazol-2-yl]-4-chloro-anillno)propanamide], the IC50 was determined as 0.0198 µM.

`CC(C(N)=O)N(c1ccc(F)cc1)c1nc(N)c(C(=O)c2ccc(O)cc2)s1` (single isomer, unassigned) [Example 286, 2-(N-[4-amino-5-(4-hydroxybenzoyl)thiazol-2-yl]-4-fluoro-anilino)propanamide (single enantiomer)]: the IC50 came out at 0.031 µM.

As to `CC(C(N)=O)N(c1ccc(F)cc1)c1nc(N)c(C(=O)c2ccc(-n3ccnc3)cc2)s1` (racemic) [Example 20, rac-2-(N-[4-amino-5-(4-imidazol-1-ylbenzoyl)thiazol-2-yl]-4-fluoro-anilino)propanamide], the half-maximal inhibitory concentration (IC50) was found to be 0.161 µM.

For `COc1ccc(C(=O)c2sc(N(c3ccc(Cl)c(F)c3)C(C)C(N)=O)nc2N)cn1` (single isomer, unassigned) [Example 172.2, 2-(N-[4-amino-5-(6-methoxypyridine-3-carbonyl)thiazol-2-yl]-4-chloro-3-fluoro-anilino)propanamide], the IC50 turned out to be 4.89 µM.

Regarding `COc1ccc(C(=O)c2sc(N(c3ccc(F)cc3)C(C)C(N)=O)nc2C)cc1` (single isomer, unassigned) [Example 176.2, 2-(4-fluoro-N-[5-(4-methoxybenzoyl)-4-methyl-thiazol-2-yl]anilino)propanamide], the IC50 turned out to be 0.672 µM.

As to `CC(C(N)=O)N(c1ccc(F)c(F)c1)c1nc(N)c(C(=O)c2ccc(C(F)(F)F)nc2)s1` (racemic) [Example 53, rac-2-(N-[4-amino-5-[6-(trifluoromethyl)pyridine-3-carbonyl]thiazol-2-yl]-3,4-difluoro-anilino)propanamide], the IC50 came to 0.0308 µM.

For the compound `CCOc1ccc(N(c2nc(N)c(C(=O)c3ccccc3)s2)C(C)C(N)=O)cc1` (racemic) [Example 195, rac-2-(N-(4-amino-5-benzoyl-thiazol-2-yl)-4-ethoxy-anilino)propanamide], the half-inhibitory concentration (IC50) amounted to 1 µM.

Turning to `CC(C(N)=O)N(c1ccc(OC(F)(F)F)nc1)c1nc(N)c(C(=O)c2ccc(OC(F)F)nc2)s1` (racemic) [Example 251, rac-2-[[4-amino-5-[6-(difluoromethoxy)pyridine-3-carbonyl]thiazol-2-yl]-[6-(trifluoromethoxy)-3-pyridyl]amino]propanamide], the IC50 is 0.087 µM.

With `CC(C(N)=O)N(c1ccc(F)cc1)c1nc(N)c(C(=O)c2ccc(OCC(=O)N(C)CCCN(C)C)cc2)s1` (racemic) [Example 113, rac-2-(N-(4-amino-5-[4-[2-[3-(dimethylamino)propyl-methyl-amino]-2-oxo-ethoxy]benzoyl]thiazol-2-yl]-4-fluoro-anilino)propanamide], the IC50 turned out to be 0.703 µM.

Regarding `CC(C(N)=O)N(c1ccc(F)cc1)c1nc(N)c(C(=O)c2ccc(F)c(F)c2)s1` (racemic) [Example 25, rac-2-(N-[4-amino-5-(3,4-difluorobenzoyl)thiazol-2-yl]-4-fluoro-anilino)propanamide], the IC50 came out at 0.101 µM.

Consider `CC(C(N)=O)N(c1ccc(F)cc1)c1nc(N)c(C(=O)c2ccc(OC(F)F)cc2)s1` (single isomer, unassigned) [Example 44.1, 2-(N-[4-amino-5-[4-(difluoromethoxy)benzoyl]thiazol-2-yl]-4-fluoro-anilino)propanamide], for which the IC50 is 1.39 µM.

Consider `CC(C(N)=O)N(c1ccc(N(C)C)c(Cl)c1)c1nc(N)c(C(=O)c2ccccc2)s1` (racemic) [Example 13, rac-2-[N-(4-amino-5-benzoyl-thiazol-2-yl)-3-chloro-4-(dimethylamino)anilino]propanamide], for which the half-inhibitory concentration (IC50) was found to be 0.357 µM.

Regarding `CC(C(N)=O)N(c1ccc(Cl)c(F)c1)c1nc(N)c(C(=O)c2ccc(C(=O)NCCOC(F)(F)F)cc2)s1` (racemic) [Example 269, rac-4-[4-amino-2-(N-(2-amino-1-methyl-2-oxo-ethyl)-4-chloro-3-fluoro-anilino)thiazole-5-carbonyl]-N-[2-(trifluoromethoxy)ethyl]benzamide], the IC50 is 0.012 µM.

On to `CC(C(N)=O)N(c1nc(N)c(C(=O)c2ccccc2)s1)c1ccccc1F` (single isomer, unassigned) [Example 75.1, 2-(N-(4-amino-5-benzoyl-thiazol-2-yl)-2-fluoro-anilino)propanamide], for which the IC50 is over 20 µM.

In the case of `CC(C(N)=O)N(c1ccc(F)cc1)c1nc(N)c(C(=O)c2ccc(OCC(=O)Nc3cccc(C(N)=O)c3)cc2)s1` (racemic) [Example 107, rac-3-[[2-[4-[4-amino-2-(N-[2-amino-1-methyl-2-oxo-ethyl]-4-fluoro-anilino)thiazole-5-carbonyl]phenoxy]acetyl]amino]benzamide], the half-maximal inhibitory concentration (IC50) worked out at 0.0773 µM.
